Source: patent publication US6375928B1, “Neutrophil stimulating peptides” (Peptech Limited, priority 1990, dated 2002)
Where no end group is shown, it is not given here. The star is where a group is joined. Acm = CC(=O)NC*

What was measured:
Assay type in all cases: cell-based
[1] = tested on: human neutrophils; test: Chemiluminescence assay: priming of neutrophils for F-met-leu-phe response (respiratory burst); settings: for lucigenin dependent chemiluminescence, peak of response: 20 min pretreatment before f-met-leu-phe; for Chemiluminescence, neutrophil respiratory burst: 100 ug peptide, second, Table 4; for chemiluminescence (repeat experiment, Table 3): peptide + fMLP; for Chemiluminescence mean + sem: priming neutrophils for respiratory burst
Procedure: Purified human neutrophils were pretreated with peptide for 20 minutes before the addition of f-met-leu-phe. The lucigenin dependent chemiluminescence response, which reflects superoxide production, was then measured. The results obtained are set out in Table 2 and are expressed as mV of lucigenin dependent chemiluminescence and represent the maximal cell activity attained.
Results are expressed as mV of lucigenin dependent chemiluminescence and represent peak of response i.e. the maximal cell activity attained.

[2] = tested on: neutrophils; test: Superoxide formation, cytochrome reduction assay
From the text: The effect of peptides 308 and 309 (SEQ ID NOs. 10 & 11) on superoxide formation was examined by the cytochrome reduction assay, according to the procedure of Ferrante, 1989 (Infection and Immunity), 57: 2115-2122). The results, expressed as n moles of O2/5×10^5 cells as set out in Table 6.

[3] = tested on: neutrophils; test: Neutrophil random migration out of wells in agarose
From the text: Migration of cells is an important property by which cells reach infection sites. Their accumulation at these sites is also dependent on the capacity of inflammatory mediators to inhibit their migration out of the sites.

[4] = tested on: neutrophils; test: Chemotactic properties, neutrophil migration under agarose; settings: towards agent well; 1 × 10^−7 M fMLP, peptide, or 10^3 U/ml TNFα; 2×10^5 neutrophils
Procedure: 5 μl of neutrophils (2×10^5 cells) were added to the inner well, with chemotactic agent or control medium added to the outer wells. Migration at various time intervals was then measured.

[5] = tested on: human neutrophils; test: Chemiluminescence assay: priming of neutrophils for F-met-leu-phe response (respiratory burst); settings: peptide alone
[6] = tested on: neutrophils; test: Neutrophil degranulation: β-glucuronidase release (azurophilic granules); settings: for β-glucuronidase release, Exp. 1 / β-glucuronidase release, Exp. 2 / β-glucuronidase release, Exp. 3 / β-glucuronidase release, Exp. 4: in the presence of CytoB
[7] = tested on: neutrophils; test: Neutrophil degranulation: Vitamin B12 binding protein release (specific granules); settings: for Vitamin B12 Binding Protein, Exp. 1 / Vitamin B12 Binding Protein, Exp. 2 / Vitamin B12 Binding Protein, Exp. 3 / Vitamin B12 Binding Protein, Exp. 4: in the presence of CytoB
[8] = tested on: monocytes; test: Priming of monocytes for a respiratory burst (chemiluminescence); settings: with fMLP; 10^6 monocytes/tube/ml; 419 100 μg/10^6 monocytes, 50 U TNF or no pre-treatment, 30 min pre-incubation 37° C.
Procedure: Peptide 419 (SEQ ID NO. 18) was assayed for its ability to prime monocytes for a respiratory burst. This assay was conducted essentially as described above for neutrophils except that the cells were cultured for 24 hours prior to assay.

[9] = peptide 100 μg/10^6 cells (or HBSS) + fMLP
[10] = peptide 100 μg/10^6 cells, no fMLP

V R S S S R T P S D K P V A H V V A (VRSSSRTPSDKPVAHVVA) [Peptide 301]
lucigenin dependent chemiluminescence, peak of response ([1]; peptide 1 μg/10^6 cells): 0.93 mV
lucigenin dependent chemiluminescence, peak of response ([1]; peptide 10 μg/10^6 cells): 0.74 mV
lucigenin dependent chemiluminescence, peak of response ([1]; peptide 100 μg/10^6 cells): 0.55 mV
lucigenin dependent chemiluminescence, peak of response ([1]; peptide 500 μg/10^6 cells): 1.10 mV

L S A E I N R P D Y L D F A E S G Q V (LSAEINRPDYLDFAESGQV) [Peptide 305]
lucigenin dependent chemiluminescence, peak of response ([1]; peptide 1 μg/10^6 cells): 0.27 mV
lucigenin dependent chemiluminescence, peak of response ([1]; peptide 10 μg/10^6 cells): 0.36 mV
lucigenin dependent chemiluminescence, peak of response ([1]; peptide 100 μg/10^6 cells): 0.24 mV

HVLLTHTISRIAVSYQTKVNLL (HVLLTHTISRIAVSYQTKVNLL) [Peptide 309]
neutrophil stimulating activity / stimulation of neutrophil respiratory burst (in words) [1]: neutrophil stimulating activity
priming of neutrophils for the respiratory burst associated with f-met-leu-phe treatment (in words) [1]: found to prime human neutrophils for the respiratory burst
Chemiluminescence, neutrophil respiratory burst [1]: 4.70 mV
lucigenin dependent chemiluminescence, peak of response ([1]; peptide 1 μg/10^6 cells): 0.38 mV
lucigenin dependent chemiluminescence, peak of response ([1]; peptide 10 μg/10^6 cells): 0.98 mV
lucigenin dependent chemiluminescence, peak of response ([1]; peptide 100 μg/10^6 cells): 13.44 mV
chemiluminescence (repeat experiment, Table 3) ([1]; 10 μg/10^6 cells): 2.46 mV
chemiluminescence (repeat experiment, Table 3) ([1]; 100 μg/10^6 cells): 12.84 mV
superoxide formation ([2]; peptide + fMLP, 10 μg/5 × 10^5 cells): 3.87 n moles of O2/5×10^5 cells
superoxide formation ([2]; peptide + fMLP, 100 μg/5 × 10^5 cells): 5.14 n moles of O2/5×10^5 cells
superoxide formation ([2]; peptide alone, 10 μg/5 × 10^5 cells): 0.62 n moles of O2/5×10^5 cells
superoxide formation ([2]; peptide alone, 100 μg/5 × 10^5 cells): 2.30 n moles of O2/5×10^5 cells
effect on neutrophil random migration (in words) [3]: potent inhibitors of neutrophil migration
Inhibition of Migration ([3]; 10 μg/10^6 cells): 0%
Inhibition of Migration ([3]; 100 μg/10^6 cells): 100%
Migration distance at 1.5 h, Agent [4]: 0.53 mm
Migration distance at 2.5 h, Agent [4]: 0.68 mm
chemiluminescence (repeat experiment, Table 3) ([5]; 10 μg/10^6 cells): 0.31 mV
chemiluminescence (repeat experiment, Table 3) ([5]; 100 μg/10^6 cells): 0.69 mV

T I S R I A V S Y Q T (TISRIAVSYQT) [Peptide 323]
priming of neutrophils for the respiratory burst associated with f-met-leu-phe treatment (in words) [1]: not found to be capable of priming neutrophils
lucigenin dependent chemiluminescence, peak of response ([1]; peptide 1 μg/10^6 cells): 0.23 mV
lucigenin dependent chemiluminescence, peak of response ([1]; peptide 10 μg/10^6 cells): 0.17 mV
lucigenin dependent chemiluminescence, peak of response ([1]; peptide 100 μg/10^6 cells): 0.47 mV

LFKGQGCPSTHVLLTHTISRI (LFKGQGCPSTHVLLTHTISRI) [Peptide 304]
neutrophil stimulating activity / stimulation of neutrophil respiratory burst (in words) [1]: neutrophil stimulating activity
priming of neutrophils for the respiratory burst associated with f-met-leu-phe treatment (in words) [1]: found to prime human neutrophils for the respiratory burst
lucigenin dependent chemiluminescence, peak of response ([1]; peptide 1 μg/10^6 cells): 0.18 mV
lucigenin dependent chemiluminescence, peak of response ([1]; peptide 10 μg/10^6 cells): 0.43 mV
lucigenin dependent chemiluminescence, peak of response ([1]; peptide 100 μg/10^6 cells): 2.56 mV
lucigenin dependent chemiluminescence, peak of response ([1]; peptide 500 μg/10^6 cells): 2.76 mV
chemiluminescence (repeat experiment, Table 3) ([1]; 10 μg/10^6 cells): 0.91 mV
chemiluminescence (repeat experiment, Table 3) ([1]; 100 μg/10^6 cells): 6.97 mV
effect on neutrophil random migration (in words) [3]: chemokinetic
Inhibition of Migration ([3]; 10 μg/10^6 cells): −43%
Inhibition of Migration ([3]; column headed 0 μg/10^6 cells): −16%
Migration distance at 1.5 h, Agent [4]: 0.47 mm
Migration distance at 2.5 h, Agent [4]: 0.72 mm
release from azurophilic granules (β-glucuronidase), in words ([6]; absence of fMLP): no effect
β-glucuronidase release, Exp. 1 [6, 9]: 26.95%
β-glucuronidase release, Exp. 2 [6, 9]: 36.43%
β-glucuronidase release, Exp. 3 [6, 9]: 35.34%
β-glucuronidase release, Exp. 4 [6, 9]: 36.65%
β-glucuronidase release, Exp. 1 [6, 10]: 3.63%
β-glucuronidase release, Exp. 2 [6, 10]: 3.14%
β-glucuronidase release, Exp. 3 [6, 10]: 2.52%
β-glucuronidase release, Exp. 4 [6, 10]: 9.82%
release from azurophilic granules (β-glucuronidase), in words ([6]; presence of fMLP): not azurophilic granules
release from specific granules (Vitamin B12 binding protein), in words ([7]; absence of fMLP): no effect
Vitamin B12 Binding Protein, Exp. 1 [7, 9]: 43.76
Vitamin B12 Binding Protein, Exp. 2 [7, 9]: 35.60
Vitamin B12 Binding Protein, Exp. 3 [7, 9]: 59.15
Vitamin B12 Binding Protein, Exp. 4 [7, 9]: 37.12
Vitamin B12 Binding Protein, Exp. 1 [7, 10]: 11.40
Vitamin B12 Binding Protein, Exp. 2 [7, 10]: 10.82
Vitamin B12 Binding Protein, Exp. 3 [7, 10]: 13.06
Vitamin B12 Binding Protein, Exp. 4 [7, 10]: 8.42
release from specific granules (Vitamin B12 binding protein), in words ([7]; presence of fMLP): enhanced release from specific granules
chemiluminescence (repeat experiment, Table 3) ([5]; 10 μg/10^6 cells): 0.36 mV
chemiluminescence (repeat experiment, Table 3) ([5]; 100 μg/10^6 cells): 0.64 mV

P S A H V L L T H T I (PSAHVLLTHTI) [Peptide 418]
neutrophil stimulating activity / stimulation of neutrophil respiratory burst (in words) [1]: neutrophil stimulating activity

S R I A V S Y Q T K V N L L (SRIAVSYQTKVNLL) [Peptide 394]
Chemiluminescence, neutrophil respiratory burst [1]: 0.33 mV

K G Q G Cys (Acm) P S T H V L L T H T (KGQGC(Acm)PSTHVLLTHT) [Peptide 462, reference compound]
priming of neutrophils for the respiratory burst associated with f-met-leu-phe treatment (in words) [1]: does not possess the biological activity of those peptides
Chemiluminescence mean + sem ([1]; 1 μg peptide): 3.1 ± 0.5 mV
Chemiluminescence mean + sem ([1]; 10 μg peptide): 4.8 ± 0.7 mV
Chemiluminescence mean + sem ([1]; 100 μg peptide): 4.8 ± 0.5 mV

A E G Q L Q W L N R R A N A L L A N G (AEGQLQWLNRRANALLANG) [Peptide 307]
lucigenin dependent chemiluminescence, peak of response ([1]; peptide 1 μg/10^6 cells): 0.35 mV
lucigenin dependent chemiluminescence, peak of response ([1]; peptide 10 μg/10^6 cells): 0.37 mV
lucigenin dependent chemiluminescence, peak of response ([1]; peptide 100 μg/10^6 cells): 0.42 mV

L T H T I S R I A (LTHTISRIA) [Peptide 393]
Chemiluminescence, neutrophil respiratory burst [1]: 0.31 mV

A K P W Y E P I Y L (AKPWYEPIYL) [Peptide 275]
lucigenin dependent chemiluminescence, peak of response ([1]; peptide 1 μg/10^6 cells): 0.99 mV
lucigenin dependent chemiluminescence, peak of response ([1]; peptide 10 μg/10^6 cells): 0.69 mV
lucigenin dependent chemiluminescence, peak of response ([1]; peptide 100 μg/10^6 cells): 0.43 mV
lucigenin dependent chemiluminescence, peak of response ([1]; peptide 500 μg/10^6 cells): 0.80 mV

CSCC[C@H](NC=O)C(=O)N[C@@H](CC(C)C)C(=O)N[C@@H](Cc1ccccc1)C(=O)O [fMLP, N-formyl-L-methionyl-L-leucyl-L-phenylalanine, reference compound]
Peak mV Chemiluminescence, Mean ± S.D. [8]: 109.0 ± 7.071 mV
Peak mV Chemiluminescence, experiment 2 [8]: 114.0 mV
Migration distance at 1.5 h, Agent [4]: 1.46 mm
Migration distance at 2.5 h, Agent [4]: 2.45 mm

L R D N Q L V V P S E G L Y L I (LRDNQLVVPSEGLYLI) [Peptide 302]
lucigenin dependent chemiluminescence, peak of response ([1]; peptide 1 μg/10^6 cells): 0.16 mV
lucigenin dependent chemiluminescence, peak of response ([1]; peptide 10 μg/10^6 cells): 0.18 mV
lucigenin dependent chemiluminescence, peak of response ([1]; peptide 100 μg/10^6 cells): 0.29 mV

L S A I K S P C Q R E T P E G A (LSAIKSPCQRETPEGA) [Peptide 303]
lucigenin dependent chemiluminescence, peak of response ([1]; peptide 1 μg/10^6 cells): 0.23 mV
lucigenin dependent chemiluminescence, peak of response ([1]; peptide 10 μg/10^6 cells): 0.17 mV
lucigenin dependent chemiluminescence, peak of response ([1]; peptide 100 μg/10^6 cells): 0.22 mV

A V S Y Q T K V N L L (AVSYQTKVNLL) [Peptide 396]
Chemiluminescence, neutrophil respiratory burst [1]: 0.70 mV

V A H V V A N P Q A E G Q L (VAHVVANPQAEGQL) [Peptide 306]
lucigenin dependent chemiluminescence, peak of response ([1]; peptide 1 μg/10^6 cells): 0.27 mV
lucigenin dependent chemiluminescence, peak of response ([1]; peptide 10 μg/10^6 cells): 0.35 mV
lucigenin dependent chemiluminescence, peak of response ([1]; peptide 100 μg/10^6 cells): 0.23 mV
